PubChem BioAssay AID624372 (Broad Institute, 2012)
Results filed as inconclusive are left out. Active and inactive are the calls of the source.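 Rule for the calls: active = fitted curve reaches -35% activity change below twice the top valid dose, with every replicate test called active; inconclusive = replicate tests disagree on the call; inactive = every replicate test called inactive.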

Tests used:
[1] = cytotoxicity in untransfected HEK293T cells – cell-based, CellTiter-Glo luminescence, dry powder, counter-screen for EBV LMP1 inhibitor project, dose response (AID 624372); details: HEK293T viability, CellTiter-Glo ATP luminescence, 48 h
[2] = system: HEK293T viability, CellTiter-Glo ATP luminescence, 48 h; assay: as above

Compound | activity change, negative = cytotoxicity ([1]; at 26 µM (top of the series)) | other results
O=C(CCc1ccccc1)NC(c1cccs1)c1cc(Cl)c2cccnc2c1O (centres undefined) | 6.13% (inactive) | 
C/C(=N\NC(=S)N1CCN(c2ccccn2)CC1)c1ccccn1 |  | AC35 [2]: 11.3 µM
C[C@@H]1CCCCO[C@H](CN(C)S(=O)(=O)c2ccccc2)[C@@H](C)CN([C@@H](C)CO)C(=O)c2cc(N(C)C)ccc2O1 | 16.8% (inactive) | 
C/C=C/C/C=C/CCC(=O)[C@H]1O[C@H]1C(N)=O |  | AC35 [2]: 18.3 µM
CCn1c2ccccc2c2cc(/C=N/n3cnnc3)ccc21 | 12.2% (inactive) | 
C[C@H](CO)N1C[C@H](C)[C@H](CN(C)C(=O)Nc2ccc(C(F)(F)F)cc2)OCCCC[C@H](C)Oc2ccc(NC(=O)Nc3ccc(F)cc3)cc2C1=O |  | AC35 [2]: 48.2 µM
COc1ccc(-c2csc3ncnc(NCCN4CCOCC4)c23)cc1 | 7.09% (inactive) | 
CCc1ccc(/C=C2\SC(=S)N(CCCC(=O)Nc3ccccn3)C2=O)cc1 | 1.67% (inactive) | 
COc1ccc(C(=O)Nc2ccc3[nH]ccc3c2)cc1 | 12.8% (inactive) | 
C/C(=N\NC(=S)N1CCCC1)c1ccccn1 |  | AC35 [2]: 11 µM
CC1CN(C(=O)CSc2nnc3c4ccccc4n(Cc4cccc(Cl)c4)c3n2)CCN1C(=O)c1ccccc1F (centres undefined) | 19.4% (inactive) | 
C/C(=N\NC(=S)N1CC2CCC(CC2)C1)c1cnccn1 |  | AC35 [2]: 7.95 µM
CC12CCC3C(CC=C4CC(O)CCC43CO)C1CCC2OC(=O)c1ccccc1 (centres undefined) | -2.56% (inactive) | 
COCCCNC(=O)C(C)Sc1nnc2c3cc(C)ccc3n(Cc3ccccc3F)c2n1 (centres undefined) |  | AC35 [2]: 56 µM
S=C(NCc1ccccn1)N/N=C/c1ccccn1 |  | AC35 [2]: 29.6 µM
C[C@@H]1CN([C@@H](C)CO)C(=O)c2cc(NC(=O)Nc3ccc(C(F)(F)F)cc3)ccc2O[C@@H](C)CCCCO[C@H]1CN(C)Cc1ccc(C(F)(F)F)cc1 | -3.84% (inactive) | 
COc1ccc2[nH]c(C(=O)N/N=C/c3ccc(O)cc3O)cc2c1 | 3.87% (inactive) | 
CCN1CCN(C(c2cccnc2)c2cc(Cl)c3cccnc3c2O)CC1 (centres undefined) | 14% (inactive) | 
C[C@@H]1CCCCO[C@H](CN(C)C(=O)CCC(F)(F)F)[C@H](C)CN([C@@H](C)CO)C(=O)c2cc(NC(=O)CCC(F)(F)F)ccc2O1 | -7.41% (inactive) | 
C/C(=N\NC(=S)N1CCCCC1)c1ccccn1 |  | AC35 [2]: 10.9 µM
C[C@@H]1CCCCO[C@H](CN(C)CC2CCCCC2)[C@H](C)CN([C@@H](C)CO)C(=O)c2cc(NC(=O)NC3CCCCC3)ccc2O1 | 4.75% (inactive) | 
C/C(=N\NC(=S)N1CCCCC1)c1cccc(C)n1 |  | AC35 [2]: 0.785 µM

Compound | activity change, negative = cytotoxicity ([1]; at 26 µM (top of the series)) | other results
C[C@@H]1CCCCO[C@H](CN(C)C(=O)NC2CCCCC2)[C@H](C)CN([C@@H](C)CO)C(=O)c2cc(NC(=O)C3CCCCC3)ccc2O1 | 3.97% (inactive) | 
O=c1[nH]c(=O)n([C@H]2C[C@H](O)[C@@H](CO)O2)cc1C(F)(F)F |  | AC35 [2]: 27.4 µM
C/C(=N\NC(=S)Nc1cccc(Cl)c1)c1ccccn1 |  | AC35 [2]: 16.2 µM
C[C@@H]1CCCCO[C@@H](CN(C)Cc2ccccc2)[C@H](C)CN([C@H](C)CO)C(=O)c2cc(NC(=O)Nc3ccc4c(c3)OCO4)ccc2O1 | 1.15% (inactive) | 
COc1ccc2nc(Nc3nc(C)c(CCC(C)C)c(=O)[nH]3)nc(C)c2c1 | 4.99% (inactive) | 
CNC[C@@H]1Oc2ccc(NS(=O)(=O)c3cn(C)cn3)cc2CC(=O)N([C@H](C)CO)C[C@@H]1C | -4.73% (inactive) | 
CC1=C(C(=O)OCc2ccc3c(c2)OCO3)C(c2ccc(F)cc2)NC(=O)N1 (centres undefined) | 1.04% (inactive) | 
Cc1ccnc(NC(=O)c2ccc(C(=O)c3ccccc3)cc2)c1 |  | AC35 [2]: 72 µM
COc1ccccc1[C@]1(C)ON(c2ccccc2C(F)(F)F)C1=O | 21.8% (inactive) | 
O=C(CSc1nnc2c3ccccc3n(Cc3ccccc3)c2n1)NCc1ccco1 | -2.78% (inactive) | 
Cc1ccc(S(=O)(=O)Nc2ccc3c(c2)C(=O)N([C@@H](C)CO)C[C@H](C)[C@@H](CN(C)C(=O)CCC(F)(F)F)OCCCC[C@H](C)O3)cc1 | 0.533% (inactive) | 
CCC(Sc1nnc2c3ccccc3n(Cc3ccc(Br)cc3)c2n1)C(=O)NCCCN1CCOCC1 (centres undefined) |  | AC35 [2]: 21.2 µM
C[C@H](CO)N1C[C@H](C)[C@@H](CN(C)CC2CC2)OCCCC[C@H](C)Oc2ccc(NC(=O)Nc3cccc4ccccc34)cc2C1=O | 33.4% (inactive) | 
CCc1ccc(/C=C/C(=O)C2C(=O)c3ccccc3C2=O)cc1 | 1.92% (inactive) | 
C[C@@H]1CN([C@@H](C)CO)C(=O)c2cc(NC(=O)Nc3ccc(C(F)(F)F)cc3)ccc2O[C@@H](C)CCCCO[C@@H]1CN(C)CC1CCCCC1 |  | AC35 [2]: 62.9 µM
COc1cccc(/C=N/Nc2ncnc3c2ncn3Cc2ccccc2)c1O | 15.7% (inactive) | 
O=C1/C(=C/c2ccncc2)SC(=S)N1Cc1ccccc1 | 7.62% (inactive) | 
CC(=O)Nc1nc(C)c(-c2csc(Nc3ccc(O)cc3)n2)s1 | 2.53% (inactive) | 
Cc1cc(NC(=O)c2ccc3c(c2)OCCO3)no1 | 6.92% (inactive) | 
C[C@@H]1CN([C@@H](C)CO)C(=O)c2cc(NC(=O)Nc3ccc4c(c3)OCO4)ccc2O[C@H]1CN(C)CC1CCCCC1 | -4.73% (inactive) | 
COc1ccc(NC(=O)c2ccc(OC(C)C(=O)O)cc2)cc1Cl (centres undefined) |  | AC35 [2]: 37.6 µM
CSC(=S)N/N=C(\C)c1cccc(C)n1 |  | activity change, negative = cytotoxicity ([1]; at 19.5 µM (top of the series)): 17.8% (inactive)

Compound | activity change, negative = cytotoxicity ([1]; at 26 µM (top of the series)) | other results
Cc1ccc(NC(=O)C2CCN(S(=O)(=O)c3ccc4c(c3)NC(=O)C(C)S4)CC2)cc1Cl (centres undefined) | 44.9% (inactive) | 
C/C(=N\NC(=S)N1CC2CCC(CC2)C1)c1cccc(C)n1 |  | AC35 [2]: 2.02 µM
C=CCN1Cc2ccccc2[C@@H]2OC(c3ccc(OCCCO)cc3)=N[C@]2(CCC(=O)OC(C)(C)C)C1=O | 6.61% (inactive) | 
Cc1c(NC(=O)c2cccc(NC(=O)COc3ccccc3C#N)c2)c(=O)n(-c2ccccc2)n1C |  | AC35 [2]: 24.4 µM
C/C(=N\NC(=S)N1CC2CCC(CC2)C1)c1ccncn1 |  | activity change, negative = cytotoxicity ([1]; at 10 µM (top of the series)): 18.8% (inactive)
c1ccc(Cn2c3ccccc3c3nnc(SCCN4CCCCC4)nc32)cc1 | -15% (inactive) | 
Oc1cccc(C(Nc2nccs2)c2ccc3cccnc3c2O)c1 (centres undefined) | 4.52% (inactive) | 
Cc1ccc(S(=O)(=O)NC(CC(C)C)C(=O)NCC(c2ccco2)N2CCCCC2)cc1 (centres undefined) | 2.47% (inactive) | 
C=C1C[C@]23C[C@@]1(O)CC[C@H]2[C@@]12C=C[C@H](O)[C@@](C)(C(=O)O1)[C@H]2[C@@H]3C(=O)O |  | activity change, negative = cytotoxicity ([1]; at 15 µM (top of the series)): 15.6% (inactive)
CSc1nc(-c2ccc(C)cc2)nc(C(Cl)Cl)n1 | 1.77% (inactive) | 
C[C@@H]1CCCCO[C@H](CN(C)C(=O)c2ccccc2)[C@H](C)CN([C@@H](C)CO)C(=O)c2cc(NC(=O)Nc3ccc(F)cc3)ccc2O1 | 5.32% (inactive) | 
c1ccc(-c2cn3c4c(sc3n2)CCCC4)cc1 | 3.96% (inactive) | 
Fc1ccc2c(c1)c1nnc(SCCN3CCOCC3)nc1n2Cc1ccccc1 |  | AC35 [2]: 16.9 µM
COc1ccccc1NC(=S)N/N=C(\C)c1ccccn1 |  | activity change, negative = cytotoxicity ([1]; at 19.5 µM (top of the series)): 3.97% (inactive)
S=C(N/N=C(\c1ccccc1)c1ccccn1)N(Cc1ccccn1)Cc1ccccn1 |  | activity change, negative = cytotoxicity ([1]; at 19.5 µM (top of the series)): 8.82% (inactive)
O=C(Nc1cc(C(F)(F)F)cc(C(F)(F)F)c1)Nc1cnn(-c2ccc([N+](=O)[O-])cc2)c1C(F)(F)F | 5.06% (inactive) | 
C=C1C[C@]23C[C@@]1(O)CC[C@@H]2c1cccc(C)c1[C@@H]3C(=O)O |  | AC35 [2]: 7.6 µM
C/C(=N\NC(=S)Nc1cccc(C)c1)c1ccccn1 |  | activity change, negative = cytotoxicity ([1]; at 19.5 µM (top of the series)): -10.2% (inactive)
O=c1[nH]c(Nc2nc3ccccc3o2)nc2c1CCCC2 | -4.82% (inactive) | 
COc1ccc(-c2cc3nc4n(c(=O)c3s2)CCC4)cc1 | 3.13% (inactive) | 
